Measurements published in patent US20240325330A1, “NEW METHOD TO TREAT ACIDOSIS RELATED DISEASES WITH ACETOACETATE” (INSTITUT NATIONAL DE LA SANTÉ ET DE LA RECHERCHE MÉDICALE, priority 2021, published 2024).

Assays:
[1] = test system: day 3 LA-Mφ (human macrophages under lactic acidosis); assay: Survival of LA-Mφ with autophagy inhibitors; type: cell-based; details: added to day 3 LA-Mφ; data not shown
Procedure: (§1) Peripheral blood mononuclear cells (PBMC) were obtained from healthy human volunteers (Blood collection center, Angers, France; agreement ANG-2017-01) by standard density-gradient centrifugation on lymphocyte separation medium (Eurobio, Courtaboeuf, France). CD14+ monocytes were then isolated by positive magnetic cell-sorting (Miltenyi Biotec, Bergisch Gladbach, Germany). Monocytes (1×10^6 cells/mL) were cultured in complete medium (CM) consisting of RPMI 1640 (Lonza, Verviers, Belgium) supplemented with 10% fetal calf serum (FCS) (Eurobio), 2 mM L-glutamine, 1 mM sodium pyruvate, 0.1 mM non-essential amino acids, 10 mM HEPES, 100 U/mL penicillin and 100 μg/mL streptomycin (all from Lonza) in the presence of 50 ng/mL GM-CSF (R&D Systems, Minneapolis, MN).
(§2) Experiments were performed in the presence of 10 mM lactic acid (Sigma-Aldrich, St Louis, MO) resulting in a pHe of 6.5 to generate LA-Mφ (lactic acidosis conditioning), 12.35 mM HCl to reach a final pHe of 6.5 and to generate HCl-Mφ(acidosis conditioning), 10 mM sodium lactate (Sigma-Aldrich) to generate lactate-Mφ (lactosis conditioning, pH 7.3), in the absence or presence of 5 mM lithium acetoacetate (AcAc) (Sigma-Aldrich, St Louis, MO).

[2] = test system: Mφ (human monocytes cultured with GM-CSF); assay: Toxicity of lactic acid for macrophages; type: cell-based; details: pH=6.5; data not shown
Procedure: as §1, §2

SMILES	survival of LA-Mφ [1]	maximum non-toxic concentration for Mφ [2] [mM]
CO/C1=C\C(C)=C\[C@@H](C)[C@@H](O)[C@@H](C)C/C(C)=C/C=C/[C@H](OC)[C@@H]([C@@H](C)[C@@H](O)[C@H](C)[C@@]2(O)C[C@@H](O)[C@H](C)[C@@H](C(C)C)O2)OC1=O [BafA1, bafilomycin A1]	significantly decreased their survival	–
CC(O)C(=O)O (stereo not drawn) [LA, lactic acid]	–	10
CC[C@@H](C(=O)[C@@H](C)[C@@H](O)[C@H](C)[C@@H]1O[C@@H]([C@@H](CC)C(=O)O)CC[C@@H]1C)[C@H]1O[C@]2(C=C[C@@H](O)[C@]3(CC[C@@](C)([C@H]4CC[C@](O)(CC)[C@H](C)O4)O3)O2)[C@H](C)C[C@@H]1C [salinomycin]	significantly decreased their survival	–
